Laboratory results published in US6906205B2, “Spiro and dispiro 1,2,4-trioxolane antimalarials” (Medicines for Malaria Venture MMV, priority 2002, dated 2005).
≈ marks a conversion by molar mass, not a printed value.

How the values were obtained:
[1] = test system: ANKA strain of P. berghei; test: single dose STI in vivo screen in infected mice; set-up: species or system Plasmodium berghei; conditions: for Activity (%) po / Survival (days) po: single 10 mg/kg po in 3% ethanol and 7% Tween 80; for Activity (%) po / Activity (%) sc / Activity (%) SSVpo: mice; for Activity (%) sc / Survival (days) sc: single 10 mg/kg sc in 3% ethanol and 7% Tween 80; for Activity (%) SSVpo: single po dose in standard suspending vehicle (SSV); for Survival (days) po / Survival (days) sc / Survival (days) SSVpo: untreated control 5.6 ± 0.3; for Survival (days) SSVpo: single po dose in SSV
Summary of the method: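 Groups of 3-5 Moro SPF or NMRI mice infected with the ANKA strain of P. berghei received a single dose of trioxolane on day one post-infection. The compound was given in 3% ethanol and 7% Tween 80 or in SSV (0.5% w/v CMC, 0.5% v/v benzyl alcohol, 0.4% v/v Tween 80, 0.9% w/v sodium chloride in water). Antimalarial activity was scored as percent reduction in parasitemia on day three and as survival time versus untreated controls. Survival to day 30 counted as cure.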

[2] = test system: Schistosoma mansoni adult schistosomes (49-day-old); test: effect on adult schistosomes (49-day-old) in mice; format: in vivo; conditions: for Tox (mice): infected mice; for % reduction of adult worms growth at day 49 after per os application of 400 mg/kg, TWR (%) / adult worms at day 49, per os 400 mg/kg, DEAD WORM (%): single 400 mg/kg per os
Procedure: Mice were infected with 100 Schistosoma mansoni cercariae […]. Each group was treated per os with OZ compounds at single doses of 200, 400, and 600 mg/kg. […] All groups were killed 4 weeks after treatment and the liver and intestine were removed and separated. The liver and intestine were compressed and alive male and female worms could be seen and counted.

[3] = test system: P. falciparum NF54 strain (sensitive to standard antimalarials); test: semiautomated microdilution assay, [3H]-hypoxanthine incorporation, NF54 strain; format: cell-based, Plasmodium falciparum; conditions: NF54 strain, 72 h incubation
Summary of the method: (§1)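 Compounds were tested against intraerythrocytic parasites taken from asynchronous stock cultures, using semiautomated microdilution. IC50 values were estimated by logit regression analysis.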

[4] = test system: P. falciparum K1 strain (Thailand resistant to chloroquine); test: semiautomated microdilution assay, [3H]-hypoxanthine incorporation, K1 strain; format: cell-based, Plasmodium falciparum; conditions: K1 strain, 72 h incubation
Summary of the method: as §1

[5] = percent reduction in parasitemia day 3 post-infection

Compound | Activity (%) po [1, 5] | Activity (%) sc [1, 5] | Activity (%) SSVpo [1, 5] | Survival (days) po [1] | Survival (days) sc [1] | Survival (days) SSVpo [1] | Tox (mice) ([2]; 200 mg/kg per os) | Tox (mice) ([2]; 400 mg/kg per os) | % reduction of adult worms growth at day 49 after per os application of 200 mg/kg, TWR (%) ([2]; single 200 mg/kg per os) | adult worms at day 49, per os 200 mg/kg, DEAD WORM (%) ([2]; single 200 mg/kg per os) | IC50 (ng/ml) NF54 [3] | IC50 (ng/ml) K1 [4] | % reduction of adult worms growth at day 49 after per os application of 400 mg/kg, TWR (%) [2] | adult worms at day 49, per os 400 mg/kg, DEAD WORM (%) [2] | Activity (%) 3 mg/kg SSV po ([1]; percent reduction in parasitemia day 3 post-infection, single 3 mg/kg po in SSV) | Survival (days) 10 mg/kg SSV po ([1]; single 10 mg/kg po in SSV)
O=C(C[C@H]1CC[C@]2(CC1)OOC1(O2)C2CC3CC(C2)CC1C3)N1CCOCC1 (stereo partly drawn) [OZ189] | 95% | 98% | 99.79% | 9.3 days | 10.7 days | 9.0 days | *Tox: 2/3 | Tox: 3/3 ^ | 0% | 17% | 3.0 ng/mL (≈ 7.66 nM) | 1.7 ng/mL (≈ 4.34 nM) |  |  |  | 
CC(=O)N1CCC2(CC1)OOC1(O2)C2CC3CC(C2)CC1C3 (stereo not drawn) [OZ49] | 81% | 85% |  | 6.7 days | 7.3 days |  |  |  |  |  | 0.93 ng/mL (≈ 3.03 nM) | 0.82 ng/mL (≈ 2.67 nM) | 17% | 10% |  | 
CCS(=O)(=O)N1CCC2(CC1)OOC1(O2)C2CC3CC(C2)CC1C3 (stereo not drawn) [OZ79] | 85% | 99.94% |  | 7.0 days | 9.3 days |  |  |  |  |  | 0.81 ng/mL (≈ 2.27 nM) | 0.38 ng/mL (≈ 1.06 nM) | 4% | 0% |  | 
OC1(c2ccc(F)cc2)CCC2(CC1)OOC1(O2)C2CC3CC(C2)CC1C3 (stereo not drawn) [OZ76] | 49% | 94% |  | 6.3 days | 8.0 days |  |  |  |  |  | 3.0 ng/mL (≈ 8.01 nM) | 1.7 ng/mL (≈ 4.54 nM) | 32% | 0% |  | 
O=C([C@H]1CC[C@]2(CC1)OOC1(O2)C2CC3CC(C2)CC1C3)N1CCN(c2ccccc2)CC1 (stereo partly drawn) [OZ140] | 0% | 60% | 8% | 6.0 days | 7.0 days | 6.3 days |  |  |  |  | 8.2 ng/mL (≈ 18.1 nM) | 5.9 ng/mL (≈ 13 nM) | 0% | 3% |  | 
CCN(CC)CC[C@H]1CC[C@]2(CC1)OOC1(O2)C2CC3CC(C2)CC1C3 (stereo partly drawn) [OZ126] | 55% | 99.44% | 72% | 7.0 days | 8.5 days | 6.7 days |  |  |  |  | 0.50 ng/mL (≈ 1.38 nM) | 0.20 ng/mL (≈ 0.55 nM) | 0% | 9% |  | 
C1=C(c2ccccc2)CCC2(C1)OOC1(O2)C2CC3CC(C2)CC1C3 (stereo not drawn) [OZ226] | 0% | 99.92% | 0% | 5.0 days | 11.0 days | 5.3 days |  |  |  |  | 4.0/4.0 ng/ml | 4.0/4.0 ng/ml | 52% | 0% |  | 
Clc1ccc(C2(c3ccc(Cl)cc3)OOC3(O2)C2CC4CC(C2)CC3C4)cc1 (stereo not drawn) [OZ43] | 99.97% | 97% | 18% | 8.9 days | 7.3 days | 5.4 days |  |  |  |  | 7.5 ng/mL (≈ 18 nM) | 11 ng/mL (≈ 26.4 nM) | 1% | 0% |  | 
O=[N+]([O-])c1cccc(C2(c3cccc([N+](=O)[O-])c3)OOC3(O2)C2CC4CC(C2)CC3C4)c1 (stereo not drawn) [OZ105] | 16% | 28% | 0% | 5.7 days | 6.3 days | 5.7 days |  |  |  |  |  | 5.4 ng/mL (≈ 12.3 nM) | 8% | 0% |  | 
NC(=O)OC1CCC2(CC1)OOC1(O2)C2CC3CC(C2)CC1C3 (stereo not drawn) [OZ107] | 70% | 99.74% | 32% | 6.3 days | 8.0 days | 6.3 days |  |  |  |  | 0.30 ng/mL (≈ 0.928 nM) | 1.0 ng/mL (≈ 3.09 nM) | 26% | 4% |  | 
O=C1COC2(CCC3(CC2)OOC2(O3)C3CC4CC(C3)CC2C4)OC1 (stereo not drawn) [OZ130] | 98.8% | 98.6% | 98.9% | 9.0 days | 7.3 days | 8.0 days |  |  |  |  | 0.94 ng/mL (≈ 2.68 nM) | 0.62 ng/mL (≈ 1.77 nM) | 0% | 8% |  | 
OC1(c2nccs2)CCC2(CC1)OOC1(O2)C2CC3CC(C2)CC1C3 (stereo not drawn) [OZ247] | 57% | 99.85% | 27% | 6.3 days | 9.0 days | 6.0 days |  |  |  |  | 2.3 ng/mL (≈ 6.33 nM) | 1.8 ng/mL (≈ 4.95 nM) |  |  |  | 
O=CN1CCN(C(=O)C[C@H]2CC[C@]3(CC2)OO[C@]2(O3)C3CC4CC(C3)CC2C4)CC1 [OZ294] |  |  |  |  |  |  |  |  |  |  | 0.63 ng/mL (≈ 1.51 nM) | 0.39 ng/mL (≈ 0.932 nM) |  |  | 70% | 8.6 days
